The results in this text go back to patent US9650405B2, “Modified sophorolipids as oil solubilizing agents” (Polytechnic Institute of New York University, priority 2010, dated 2017).

Data set [1] in a line: Lemon oil solubilization, sonication, droplet size by dynamic light scattering. The format is physicochemical. To be noted: for average droplet sizes after one month: lemon oil emulsions; for Emulsion Droplet Size / Emulsion Droplet Size, bottom emulsion layer / Emulsion Droplet Size, top emulsion layer: 1 weight-%. As for the experimental part:
MSL's used in this example are SL-hexyl ester (16), SL-octyl ester SL (17), and SL-dodecyl ester (18). To test the MSL capacity for lemon oil solubilization, the volume ratio of water to lemon oil, the concentration of surfactant, and the homogenization time (using a sonicator as the means of homogenization) were varied. Concentration of surfactant is calculated on a w/w basis relative to the mass of water being used. To form emulsions, the MSL or other surfactant is first dissolved in the water, oil is added to the solution, and finally the contents of the water/surfactant+oil system is sonicated. Subsequently, the emulsion is allowed to settle for 24 hours at 25° C. before measurements or visual observations are made.
To evaluate the stability of lemon oil solubilization, photographs of emulsions were recorded daily (after the initial 24 hours). Visual observations consisted of assessing solution clarity, extent of creaming and whether oil separation occurs. After selected time periods measurement of emulsion droplet size was performed by dynamic light scattering, which gives an average droplet size in the solution. […] If the emulsion had creamed (separated into two discreet emulsion layers) the average droplet size for each emulsion layer was determined. The results of this study are listed in Table 6, where the first number represents average droplet size in the top emulsion layer and the second represents the average droplet size in the bottom emulsion layer. […] A better performing emulsifier for this study is defined as functioning to form emulsions with smaller average particle size after the aging period.

A short description of data set [2]: Emulsification of paraffin and rapeseed oil by transalkylidenation MSLs. It is filed as physicochemical. As to conditions: for change in emulsions during a 6-week aging period: 1 weight % surfactant, water:paraffin oil 1:1 (v/v), FIG. 22. The method, then:
Mixtures of oil (paraffin or rapeseed) and water, in a 1:1 volume ratio, were prepared. MSL compounds 39, 40, and 41 at 1 weight % relative to water were each assessed as emulsifiers. Each mixture was agitated for 5 min using a homogenizer. […] This is in contrast to the studies above where sophorolipid esters and amides consisting of one hydrophobic arm formed oil-in-water mixtures. For compound 43 that has relatively more hydrophobic character than MSL compounds 39. 40 and 41, paraffin oil and water (1:1 volume ratio) were combined and MSL compound 43 (2 weight % to water) was then added. The mixture was agitated by a homogenizer for 5 minutes. […] The emulsion was stable during the 3 weeks it was monitored (FIG. 24). […] The cloudy parts are emulsified water, and the continuous phase is the oil. […] Condition: 15% (v/v) of water in rapeseeds oil, 1 weight % (relative to water) of compound 40 were mixed and stirred using a homogenizer for 5 minutes (scale bar: 100 μm).

Data set [3] in a line: Emulsion stability based on phase separation. It is filed as physicochemical. As for the experimental part:
The emulsion was obtained by homogenizing the oil and water mixture and was allowed to settle at room temperature for 24 hours. […] Then, this mixture was homogenized at 13,000 rpm for 2 minutes. Thereafter, the resulting emulsion was left unagitated at 25° C. for 24 hours. Surfactants which give a larger emulsion phase are denoted as having higher emulsion effectiveness (Process Safety and Environment protection, 2005, 83, 38-46). […] Thus, unexpectedly, that longer alkyl chains, at least up to butyl and hexyl, provided improved interfacial stability at the paraffin oil/water interface. […] Apparently, ester bonds of SL-esters are less disruptive to organization at the oil water interface than amide bonds of SL-amides. […] The acidic SL (3) gave an 8% emulsion layer, much lower than the MSL examples given herein. Similarly, the natural SL (1) mixture gave a 10% emulsion layer. This performance is also far below that of SL-butyl amide (24), hexyl amide (25), butyl ester (8) and hexyl ester (16).
After homogenized at 13,000 rpm for 2 minutes, the emulsions were kept at room temperature and separation of the respective oil, emulsion and water layers was recorded for up to 1 month.

Data set [4] in a line: Crude oil clearing/displacement activity. As to conditions: 20 μL of 1 mg/mL solution. The method, then:
Oil cleaning assays were performed using Louisiana Crude, Arabian Light Crude, and Prudhoe Bay Crude as the oil phase. In one study, the oil clearing/displacement activity of MSLs were assessed using a crude oil layer on top of sea water in order to simulate oil spill type conditions. Sea water (20 mL) was transferred to plastic Petri dishes and 20 μL of a crude oil type was added on top of the water to create an oil layer. Subsequently, a 20 μL aliquot of MSL solution (1 mg/mL) was added dropwise to the top of the oil layer. The instantaneous formation of an oil clearing zone as well as the diameter of the clearing zone was determined as a function of the dispersant used. […] Furthermore, the oil displacement activity of SL-ethyl ester and SL-butyl ester was slightly higher than Triton-X-100 for Arabian Light crude.

A short description of data set [5]: Emulsion droplet size distribution, Coulter LS 230 analyzer. It is filed as physicochemical. To be noted: paraffin oil-to-water 7:3 v/v, 25° C. As for the experimental part:
Emulsified oil droplet size (average and standard deviation) was measured after suitable dilution of the emulsion phase using a Coulter LS 230 analyzer. […] Relative to natural and lactonic SL, selected MSLs show improved properties as emulsifiers on paraffin oil.
After being aged for 3-months, emulsified oil droplet size (average and standard deviation) was measured after suitable dilution of the emulsion phase using a Coulter LS 230 analyzer and the results are listed in Table 5. […] However, increasing the surfactant concentration from 1 to 2% did result in substantially smaller emulsion-phase droplet sizes. […] This is evidence that MSL's can stabilize oil phases greatly decreasing their tendency to undergo coalescence. […] It follows that the results of 3-month aging studies support the utility of selected MSLs for formation and stabilization of oil-in-water emulsions of paraffin oil phases. One skilled in the art would expect that the ability of these MSLs to stabilize paraffin oil phases teaches that they would also stabilize oil phases of similar structure.

Data set [6] can be described thus: Crude oil emulsification activity (turbidity at 610 nm). To be noted: emulsifier 1 mg/mL. The method, then:
Emulsification activity was assessed using Louisiana Crude, Arabian Light Crude, and Prudhoe Bay Crude as the oil phase. A 2 mL solution with emulsifier concentration of 1 mg/mL was prepared. A crude oil (10 mg) was added to the emulsifier aqueous solution, the mixture was vortexed for one minute and the emulsified mixture was allowed to stand for 20 minutes. Emulsification activity was determined by measuring turbidity of the emulsion mixture in a spectrophotometer at 610 nm. The results obtained using SL-ethyl ester, SL-butyl ester, the natural sophorolipid mixture and Triton X-100 as emulsifiers are expressed as D610 and are listed in Table 8. […] Furthermore, a remarkable improvement in emulsification activity was obtained for SL-butyl ester relative to the natural sophorolipid mixture. These comparative results for emulsification of Louisiana Crude, Arabian Light Crude, and Prudhoe Bay Crude oil phase could not be anticipated by one skilled in the art.

Where [7] appears, read: lemon oil/water 1/99, sonication 60 sec, 1 Week.
Setting [8] is: lemon oil/water 1/99, sonication 60 sec, 5 Weeks.
Where [9] appears, read: lemon oil/water 5/95, sonication 60 sec, 1 Week.
[10] abbreviates: lemon oil/water 5/95, sonication 60 sec, 5 Weeks.
Where [11] appears, read: oil (paraffin or rapeseed) and water 1:1 volume ratio, 1 weight % relative to water.
Where [12] appears, read: paraffin oil and water 1:1 volume ratio, 2 weight % to water.
The mark [13] stands for this setting: Arabian Light Crude on sea water.
Where [14] appears, read: lemon oil/water 1/99, sonication 120 sec, 1 Week.

On to `CCCCCCCCOC(=O)CCCCCCCC=CCCCCCCC(C)OC1OC(CO)C(O)C(O)C1OC1OC(CO)C(O)C(O)C1O` (stereo not drawn) [Compound 17, SL-octyl ester], for which, in data set [1], the “average droplet sizes after one month” value is reported as “below 1 μm”. The “Emulsion Droplet Size” value worked out at 92 nm in data set [1] (setting [7]); 52 nm in data set [1] (lemon oil/water 1/99, sonication 60 sec, 2 Days); 183 nm in data set [1] (setting [8]); 179 nm in data set [1] (setting [9]); 167 nm in data set [1] (lemon oil/water 5/95, sonication 60 sec, 2 Days); 325 nm in data set [1] (setting [10]).
Consider `CCCCCCCCCCCCOC(=O)CCCCCCCC=CCCCCCCC(C)OC1OC(CO)C(O)C(O)C1OC1OC(CO)C(O)C(O)C1O` (stereo not drawn) [Compound 18, SL-dodecyl ester], for which the “average droplet sizes after one month” value in data set [1] was “below 1 μm”. For the same molecule, the “Emulsion Droplet Size” value was found to be 238 nm in data set [1] (setting [7]) and 277 nm in data set [1] (setting [8]). Further, the results for the “Emulsion Droplet Size, bottom emulsion layer” value in data set [1] (setting [9]) and in data set [1] (setting [10]) were 327 nm and 208 nm, respectively. In addition, the “Emulsion Droplet Size, top emulsion layer” value in data set [1] (setting [9]) was determined as 389 nm; in data set [1] (setting [10]), 551 nm.
As for `COC(=O)/C=C/CCCCCCCC(=O)OC1C(COC(C)=O)OC(OC2C(OC(C)CCCCCC/C=C/C(=O)OC)OC(COC(C)=O)C(O)C2O)C(O)C1O` (stereo not drawn) [Compound 39], the “change in emulsions during a 6-week aging period” value in data set [2] is “no substantial change”. In data set [2] (setting [11]), the emulsion type result was “water-in-oil emulsions” and the “time the emulsions were stable (monitored period)” value (from here on “time the emulsions were stable”) is no less than 6 weeks.
In the case of `CCOC(=O)/C=C/CCCCCCCC(=O)OC1C(COC(C)=O)OC(OC2C(OC(C)CCCCCC/C=C/C(=O)OCC)OC(COC(C)=O)C(O)C2O)C(O)C1O` (stereo not drawn) [Compound 40], in data set [2] (15% (v/v) of water in rapeseeds oil, 1 weight % relative to water), the “emulsion stability after 6 weeks” value is “emulsion remained stable”. In addition, in data set [2] (setting [11]), the emulsion type result is on record as “water-in-oil emulsions” and the “time the emulsions were stable” value is no less than 6 weeks.
As for `CCCCOC(=O)/C=C/CCCCCCCC(=O)OC1C(COC(C)=O)OC(OC2C(OC(C)CCCCCC/C=C/C(=O)OCCCC)OC(COC(C)=O)C(O)C2O)C(O)C1O` (stereo not drawn) [Compound 41], in data set [2] (setting [11]), the emulsion type entry is on record as “water-in-oil emulsions” and the “time the emulsions were stable” value was no less than 6 weeks.
`CCCCCCCCCCCCOC(=O)/C=C/CCCCCCCC(=O)OC1C(COC(C)=O)OC(OC2C(OC(C)CCCCCC/C=C/C(=O)OCCCCCCCCCCCC)OC(COC(C)=O)C(O)C2O)C(O)C1O` (stereo not drawn) [Compound 43]: the “change in emulsions during a 6-week aging period” value in data set [2] was “no substantial change”. Moreover, in data set [2] (setting [12]), the emulsion type result is reported as “water-in-oil emulsion” and the “time the emulsion was stable (monitored period)” value was no less than 3 weeks.
As for `CCCCCCCCCCCCOS(=O)(=O)[O-].[Na+]` [SDS, Sodium dodecyl sulfate, reference compound], in data set [3] (oil/water 7/3, 2%-by-weight, start of aging), the “emulsion layer, start” value is on record as 90%. This molecule showed an emulsion layer percentage in data set [3] (paraffin oil/water 5/5, 2%-by-weight emulsifier, after 24 hours at 25° C.) of 70%. The “Oil displacement activity (diameter of the clearing zone)” value came out at 0.65 ± 0.21 cm in data set [4] (setting [13]), 0.5 ± 0.14 cm in data set [4] (Louisiana Crude on sea water) and 1.2 ± 0.42 cm in data set [4] (Prudhoe Bay Crude on sea water). The Average droplet size in data set [5] (0.5 weight %, 24 hours) was 2.3 ± 0.2 μm; in data set [5] (0.5 weight %, aged 3-months), 3.1 ± 0.1 μm; in data set [5] (1 weight %, 24 hours), 2.1 ± 0.1 μm; in data set [5] (1 weight %, aged 3-months) it was 2.7 ± 0.1 μm; in data set [5] (2 weight %, 24 hours), 1.6 ± 0.2 μm; in data set [5] (2 weight %, aged 3-months), 2.0 ± 0.1 μm.
Take Rhamnolipid [reference compound]: the “Emulsion Droplet Size” value in data set [1] (setting [14]) is 379 nm.
On to TWEEN ® 60 [reference compound], for which the “Emulsion Droplet Size” value in data set [1] (lemon oil/water 1/99, sonication 120 sec, 1 Month) was found to be 233 nm; in data set [1] (setting [14]), 173 nm.
On to Triton X-100 [reference compound], for which the “Oil displacement activity (diameter of the clearing zone)” value in data set [4] (setting [13]) amounted to 6.05 ± 0.07 cm; in data set [4] (Louisiana Crude on sea water), 5.5 ± 0.21 cm; in data set [4] (Prudhoe Bay Crude on sea water), 7.8 ± 0.07 cm. The “Emulsification activity (D610)” value in data set [6] (Arabian Crude) is listed as 0.17; in data set [6] (Louisiana Crude), 0.28; in data set [6] (Prudhoe Crude), 0.49.
